Results reported in patent US11377441B2, “Covalent inhibitors of KRAS” (Araxes Pharma LLC, priority 2017, dated 2022).

Each compound was assayed against T1, KRAS G12C 1-169, his-tagged protein, GDP-loaded (Homo sapiens, UniProt P01116, G12C) (assay: Biochemical assay: covalent modification of KRAS G12C measured by mass spectrometry (RapidFire/TOF or Q-Exactive)). Conditions: covalent binding to (modification of) KRAS G12C after a ten minute incubation period.
T1 construct: KRAS G12C 1-169, his-tagged protein, GDP-loaded
Format: binding
Outline: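 Intact-mass readout (TOF or Q-Exactive, charge-envelope deconvolution) gives percent covalent adduct from modified and unmodified species. Compound at 10, 30 or 100 μM was incubated at room temperature for 10 min to 24 h with 2 μM or 0.5 μM GDP-bound KRAS G12C 1-169 in Hepes/NaCl/MgCl2 buffer, then acid-quenched.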

Question: With `C=CC(=O)N1C[C@H](C)N(c2nc(N3CC(NC)C3)nc3c(F)c(-c4c(C)ccc5cnn(C6CC6)c45)c(Cl)cc23)C[C@H]1C` (atropisomer, axis not shown) [Compound 207, 1-((2R,5S)-4-((S)-6-chloro-7-(1-cyclopropyl-6-methyl-1H-indazol-7-yl)-8-fluoro-2-(3-(methylamino)azetidin-1-yl)quinazolin-4-yl)-2,5-dimethylpiperazin-1-yl)prop-2-en-1-one] as the compound, how does the Binding % read?
Answer: Its Binding % is “+ (+ indicates binding activity greater than 0% and up to 50%)”.

Question: For `C=CC(=O)N1C[C@H](C)N(c2nc(N3CC(NC)C3)nc3c(F)c(-c4c(C)ccc5cnn(C6CC6)c45)c(Cl)cc23)C[C@H]1C` (atropisomer, axis not shown) [Compound 208, 1-((2R,5S)-4-((R)-6-chloro-7-(1-cyclopropyl-6-methyl-1H-indazol-7-yl)-8-fluoro-2-(3-(methylamino)azetidin-1-yl)quinazolin-4-yl)-2,5-dimethylpiperazin-1-yl)prop-2-en-1-one], which Binding % is on record?
Answer: Its Binding % is “+++ (+++ indicates binding activity greater than 80%)”.

Question: Which Binding % does the source give for `C=CC(=O)N1C[C@H](C)N(c2nc(N3CC(NC)C3)nc3c(F)c(-c4c(C)ccc5[nH]nc(C6CC6)c45)c(Cl)cc23)C[C@H]1C` (atropisomer, axis not shown) [Compound 210, 1-((2R,5S)-4-((S)-6-chloro-7-(3-cyclopropyl-5-methyl-1H-indazol-4-yl)-8-fluoro-2-(3-(methylamino)azetidin-1-yl)quinazolin-4-yl)-2,5-dimethylpiperazin-1-yl)prop-2-en-1-one] here?
Answer: Its Binding % is “+ (+ indicates binding activity greater than 0% and up to 50%)”.

Question: With `[2H]C([2H])([2H])N(C1CN(c2nc(N3C[C@@H](C)N(C(=O)C=C)C[C@@H]3C)c3cc(Cl)c(-c4c(C)ccc5cnn(C)c45)c(F)c3n2)C1)C([2H])([2H])[2H]` (atropisomer, axis not shown) [Compound 211, 1-((2R,5S)-4-((S)-6-chloro-7-(1,6-dimethyl-1H-indazol-7-yl)-2-(3-(di-perdeuteromethylamino)azetidin-1-yl)-8-fluoroquinazolin-4-yl)-2,5-dimethylpiperazin-1-yl)prop-2-en-1-one] as the compound, how does the Binding % read?
Answer: Its Binding % is “+ (+ indicates binding activity greater than 0% and up to 50%)”.

Question: Which Binding % does the source give for `[2H]C([2H])([2H])N(C1CN(c2nc(N3C[C@@H](C)N(C(=O)C=C)C[C@@H]3C)c3cc(Cl)c(-c4c(C)ccc5cnn(C)c45)c(F)c3n2)C1)C([2H])([2H])[2H]` (atropisomer, axis not shown) [Compound 212, 1-((2R,5S)-4-((R)-6-chloro-7-(1,6-dimethyl-1H-indazol-7-yl)-2-(3-(di-perdeuteromethylamino)azetidin-1-yl)-8-fluoroquinazolin-4-yl)-2,5-dimethylpiperazin-1-yl)prop-2-en-1-one] here?
Answer: Its Binding % is “+++ (+++ indicates binding activity greater than 80%)”.

Question: With `C=CC(=O)N1C[C@H](C)N(c2nc(N3CC(N(C)C)C3)nc3c(F)c(-c4ccc(F)c5cnn(C6CC6)c45)c(Cl)cc23)C[C@H]1C` (atropisomer, axis not shown) [Compound 217, 1-((2R,5S)-4-((S)-6-chloro-7-(1-cyclopropyl-4-fluoro-1H-indazol-7-yl)-2-(3-(dimethylamino)azetidin-1-yl)-8-fluoroquinazolin-4-yl)-2,5-dimethylpiperazin-1-yl)prop-2-en-1-one] as the compound, how does the Binding % read?
Answer: The Binding % was “+ (+ indicates binding activity greater than 0% and up to 50%)”.

Question: Which Binding % does the source give for `C=CC(=O)N1C[C@H](C)N(c2nc(N3CC(N(C)C)C3)nc3c(F)c(-c4ccc(F)c5cnn(C6CC6)c45)c(Cl)cc23)C[C@H]1C` (atropisomer, axis not shown) [Compound 218, 1-((2R,5S)-4-((R)-6-chloro-7-(1-cyclopropyl-4-fluoro-1H-indazol-7-yl)-2-(3-(dimethylamino)azetidin-1-yl)-8-fluoroquinazolin-4-yl)-2,5-dimethylpiperazin-1-yl)prop-2-en-1-one] here?
Answer: Its Binding % is “+++ (+++ indicates binding activity greater than 80%)”.

Question: With `C=CC(=O)N1C[C@H](C)N(c2nc(N3CC(NC)C3)nc3c(F)c(-c4c(C)ccc5[nH]nc(C)c45)c(Cl)cc23)C[C@H]1C` (atropisomer, axis not shown) [Compound 219, 1-((2R,5S)-4-((S)-6-chloro-7-(3,5-dimethyl-1H-indazol-4-yl)-8-fluoro-2-(3-(methylamino)azetidin-1-yl)quinazolin-4-yl)-2,5-dimethylpiperazin-1-yl)prop-2-en-1-one] as the compound, how does the Binding % read?
Answer: Its Binding % is “+ (+ indicates binding activity greater than 0% and up to 50%)”.

Question: `C=CC(=O)N1C[C@H](C)N(c2nc(N3CC(NC)C3)nc3c(F)c(-c4c(C)ccc5[nH]nc(C)c45)c(Cl)cc23)C[C@H]1C` (atropisomer, axis not shown) [Compound 220, 1-((2R,5S)-4-((R)-6-chloro-7-(3,5-dimethyl-1H-indazol-4-yl)-8-fluoro-2-(3-(methylamino)azetidin-1-yl)quinazolin-4-yl)-2,5-dimethylpiperazin-1-yl)prop-2-en-1-one] was tested. Which Binding % did it give?
Answer: The Binding % was “+++ (+++ indicates binding activity greater than 80%)”.

Question: With `[2H]C([2H])([2H])N(C1CN(c2nc(N3C[C@@H](C)N(C(=O)C=C)C[C@@H]3C)c3cc(Cl)c(-c4c(C)ccc5[nH]nc(C)c45)c(F)c3n2)C1)C([2H])([2H])[2H]` (atropisomer, axis not shown) [Compound 221, 1-((2R,5S)-4-((R)-6-chloro-7-(3,5-dimethyl-1H-indazol-4-yl)-2-(3-(di-perdeuteromethylamino)azetidin-1-yl)-8-fluoroquinazolin-4-yl)-2,5-dimethylpiperazin-1-yl)prop-2-en-1-one] as the compound, how does the Binding % read?
Answer: Its Binding % is “+++ (+++ indicates binding activity greater than 80%)”.

Question: Which Binding % does the source give for `[2H]C([2H])([2H])N(C1CN(c2nc(N3C[C@@H](C)N(C(=O)C=C)C[C@@H]3C)c3cc(Cl)c(-c4c(C)ccc5[nH]nc(C)c45)c(F)c3n2)C1)C([2H])([2H])[2H]` (atropisomer, axis not shown) [Compound 222, 1-((2R,5S)-4-((S)-6-chloro-7-(3,5-dimethyl-1H-indazol-4-yl)-2-(3-(di-perdeuteromethylamino)azetidin-1-yl)-8-fluoroquinazolin-4-yl)-2,5-dimethylpiperazin-1-yl)prop-2-en-1-one] here?
Answer: The Binding % was “+ (+ indicates binding activity greater than 0% and up to 50%)”.

Question: For `[2H]C([2H])([2H])N(C1CN(c2nc(N3C[C@@H](C)N(C(=O)C=C)C[C@@H]3C)c3cc(Cl)c(-c4c(C)ccc5[nH]nc(C6CC6)c45)c(F)c3n2)C1)C([2H])([2H])[2H]` (atropisomer, axis not shown) [Compound 223, 1-((2R,5S)-4-((S)-6-chloro-7-(3-cyclopropyl-5-methyl-1H-indazol-4-yl)-2-(3-(di-perdeuteromethylamino)azetidin-1-yl)-8-fluoroquinazolin-4-yl)-2,5-dimethylpiperazin-1-yl)prop-2-en-1-one], which Binding % is on record?
Answer: Its Binding % is “+ (+ indicates binding activity greater than 0% and up to 50%)”.

Question: Which Binding % does the source give for `[2H]C([2H])([2H])N(C1CN(c2nc(N3C[C@@H](C)N(C(=O)C=C)C[C@@H]3C)c3cc(Cl)c(-c4c(C)ccc5[nH]nc(C6CC6)c45)c(F)c3n2)C1)C([2H])([2H])[2H]` (atropisomer, axis not shown) [Compound 224, 1-((2R,5S)-4-((R)-6-chloro-7-(3-cyclopropyl-5-methyl-1H-indazol-4-yl)-2-(3-(di-perdeuteromethylamino)azetidin-1-yl)-8-fluoroquinazolin-4-yl)-2,5-dimethylpiperazin-1-yl)prop-2-en-1-one] here?
Answer: Its Binding % is “+ (+ indicates binding activity greater than 0% and up to 50%)”.

Question: With `C=CC(=O)N1C[C@H](C)N(c2nc(OC[C@@H]3CCCN3C)nc3c(F)c(-c4c(C)ccc5[nH]nc(C6CC6)c45)c(Cl)cc23)C[C@H]1C` (atropisomer, axis not shown) [Compound 227, 1-((2R,5S)-4-((S)-6-chloro-7-(3-cyclopropyl-5-methyl-1H-indazol-4-yl)-8-fluoro-2-(((S)-1-methylpyrrolidin-2-yl)methoxy)quinazolin-4-yl)-2,5-dimethylpiperazin-1-yl)prop-2-en-1-one] as the compound, how does the Binding % read?
Answer: Its Binding % is “+ (+ indicates binding activity greater than 0% and up to 50%)”.

Question: How did the Binding % turn out when `C=CC(=O)N1C[C@H](C)N(c2nc(OC[C@@H]3CCCN3C)nc3c(F)c(-c4c(C)ccc5[nH]nc(C6CC6)c45)c(Cl)cc23)C[C@H]1C` (atropisomer, axis not shown) [Compound 228, 1-((2R,5S)-4-((R)-6-chloro-7-(3-cyclopropyl-5-methyl-1H-indazol-4-yl)-8-fluoro-2-(((S)-1-methylpyrrolidin-2-yl)methoxy)quinazolin-4-yl)-2,5-dimethylpiperazin-1-yl)prop-2-en-1-one] was run?
Answer: The Binding % was “+++ (+++ indicates binding activity greater than 80%)”.

Question: How did the Binding % turn out when `C=CC(=O)N1C[C@H](C)N(c2nc(OC[C@@H]3CCCN3C)nc3c(F)c(-c4c(C)ccc5cnn(C)c45)c(Cl)cc23)C[C@H]1C` (atropisomer, axis not shown) [Compound 234, 1-((2R,5S)-4-((S)-6-chloro-7-(1,6-dimethyl-1H-indazol-7-yl)-8-fluoro-2-(((S)-1-methylpyrrolidin-2-yl)methoxy)quinazolin-4-yl)-2,5-dimethylpiperazin-1-yl)prop-2-en-1-one] was run?
Answer: The Binding % was “++ (++ indicates binding activity from 50 to 80%)”.

Question: For `C=CC(=O)N1C[C@H](C)N(c2nc(OC[C@@H]3CCCN3C)nc3c(F)c(-c4c(C)ccc5cnn(C)c45)c(Cl)cc23)C[C@H]1C` (atropisomer, axis not shown) [Compound 235, 1-((2R,5S)-4-((R)-6-chloro-7-(1,6-dimethyl-1H-indazol-7-yl)-8-fluoro-2-(((S)-1-methylpyrrolidin-2-yl)methoxy)quinazolin-4-yl)-2,5-dimethylpiperazin-1-yl)prop-2-en-1-one], which Binding % is on record?
Answer: The Binding % was “+++ (+++ indicates binding activity greater than 80%)”.
